PubChem BioAssay (NCI)
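Following 48 hours of exposure in 96-well plates, responses at five concentrations were used to interpolate endpoints linearly. TGI denotes the concentration required for complete inhibition of growth.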

Assays:
Test in all cases: NCI anticancer screen, dose series, 48 h
[1] = tested on: DMS 273 small cell lung
[2] = tested on: KM12 colon
[3] = tested on: DLD-1 colon
[4] = tested on: SNB-75 CNS
[5] = tested on: IGROV1 ovarian
[6] = tested on: SNB-19 CNS
[7] = tested on: SF-268 CNS
[8] = tested on: RXF 393 renal
[9] = tested on: OVCAR-8 ovarian
[10] = tested on: M19-MEL melanoma
[11] = tested on: CAKI-1 renal
[12] = tested on: CCRF-CEM leukemia
[13] = tested on: NCI-H23 lung
[14] = tested on: SK-MEL-2 melanoma
[15] = tested on: SF-295 CNS
[16] = tested on: SW-620 colon
[17] = tested on: KM20L2 colon
[18] = tested on: TK-10 renal
[19] = tested on: NCI-H522 lung
[20] = tested on: OVCAR-5 ovarian
[21] = tested on: K-562 leukemia
[22] = tested on: U251 CNS
[23] = tested on: SF-539 CNS
[24] = tested on: EKVX NSCLC
[25] = tested on: UACC-62 melanoma
[26] = tested on: SNB-78 CNS
[27] = tested on: LOX IMVI melanoma
[28] = tested on: HL-60(TB) leukemia
[29] = tested on: SK-OV-3 ovarian
[30] = tested on: UO-31 renal
[31] = tested on: MOLT-4 leukemia
[32] = tested on: HCT-116 colon
[33] = tested on: DMS 114 small cell lung
[34] = tested on: SR leukemia
[35] = tested on: 786-0 renal
[36] = tested on: OVCAR-4 ovarian
[37] = tested on: NCI-H226 lung
[38] = tested on: SK-MEL-28 melanoma
[39] = tested on: HOP-92 NSCLC
[40] = tested on: OVCAR-3 ovarian
[41] = tested on: SK-MEL-5 melanoma
[42] = tested on: HCT-15 colon
[43] = tested on: RPMI-8226 leukemia
[44] = tested on: HOP-62 NSCLC
[45] = tested on: ACHN renal
[46] = tested on: M14 melanoma
[47] = tested on: COLO 205 colon
[48] = tested on: A549 NSCLC
[49] = tested on: LXFL 529 NSCLC
[50] = tested on: A498 renal
[51] = tested on: NCI-H460 lung
[52] = tested on: MALME-3M melanoma
[53] = tested on: HT29 colon
[54] = tested on: HOP-18 NSCLC
[55] = tested on: SN12C renal
[56] = tested on: UACC-257 melanoma
[57] = tested on: XF 498 CNS
[58] = tested on: HCC-2998 colon

Measured: TGI

C[C@@]1(Cc2ccccc2)C(=O)N2[C@@H](CO)C(c3ccccc3)O[C@]2(C)c2ccccc21 (stereo not given in full)
not listed: [50] | [51] | [52] | [53] | [54] | [55] | [56] | [57] | [58]
> 100 µM: all other assays above

CCOC(=O)C(/C(=N\NC(=O)OC)C(=O)Nc1cc(OC)ccc1OC)c1cnc2ccccc2n1 (stereo not given)
not listed: [1] | [2] | [6] | [14] | [17] | [20] | [31] | [40]
> 100 µM: all other assays above

CC(NC1CCCC[C@H]1O)c1ccccc1 (stereo not given in full)
not listed: [1] | [2] | [7] | [8] | [9] | [12] | [13] | [15] | [18] | [19] | [21] | [23] | [24] | [27] | [28] | [33] | [34] | [40] | [42] | [50] | [55] | [57]
> 100 µM: all other assays above
